Data from PubChem BioAssay AID248 (DTP/NCI, 2004).
Values joined by “and” are separate entries in the source; they are usually repeats but may differ in a detail not shown here. Identical values can stand only once. Inconclusive results and toxic doses are left out. No stated cut-off is given here; in the data, active means T/C of 150% or more; inactive means T/C below 125%.

Tested on: L1210 leukemia ip in BDF1 mice, survival T/C
Experiment: NCI In Vivo Anticancer Drug Screen. Data for tumor model L1210 Leukemia (intraperitoneal) in B6D2F1 (BDF1) mice
Settings: endpoint: mean survival time, higher = longer survival
How it was run: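 Mice bearing the transplanted tumor received compound or vehicle. Survival of the treated group was divided by that of the vehicle-treated control group to give the ratio.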

[1] = dose: 100.0 mg/kg/injection, schedule: Q01DX001 (ip), vehicle: saline
[2] = dose: 200.0 mg/kg/injection, schedule: Q01DX001 (ip), vehicle: saline
[3] = dose: 400.0 mg/kg/injection, schedule: Q01DX001 (ip), vehicle: saline
[4] = dose: 100.0 mg/kg/injection, schedule: Q01DX001 (ip), vehicle: saline with Tween-80
[5] = dose: 200.0 mg/kg/injection, schedule: Q01DX001 (ip), vehicle: saline with Tween-80
[6] = dose: 400.0 mg/kg/injection, schedule: Q01DX001 (ip), vehicle: saline with Tween-80

Measured: T/C

O=C(NCCc1nc(C(=O)O)cs1)c1ccccc1
inactive: dose: 100.0 mg/kg/injection, schedule: Q01DX001 (ip), vehicle: other 98 % of control | dose: 100.0 mg/kg/injection, schedule: Q01DX009 (ip), vehicle: gum acacia 99 % of control | dose: 100.0 mg/kg/injection, schedule: Q04DX003 (ip), vehicle: gum acacia 103 % of control | dose: 200.0 mg/kg/injection, schedule: Q01DX001 (ip), vehicle: other 101 % of control | dose: 200.0 mg/kg/injection, schedule: Q04DX003 (ip), vehicle: gum acacia 98 % of control | dose: 400.0 mg/kg/injection, schedule: Q01DX001 (ip), vehicle: other 102 % of control | dose: 400.0 mg/kg/injection, schedule: Q04DX003 (ip), vehicle: gum acacia 97 % of control

CC(C)n1cc2c(N)ncnc2n1
inactive: dose: 50.0 mg/kg/injection, schedule: Q01DX009 (ip), vehicle: saline 117 % of control | [1] 96 % of control | dose: 100.0 mg/kg/injection, schedule: Q01DX009 (ip), vehicle: saline 104 % of control | dose: 100.0 mg/kg/injection, schedule: Q04DX003 (ip), vehicle: saline 103 % of control | [2] 104 % of control | dose: 200.0 mg/kg/injection, schedule: Q04DX003 (ip), vehicle: saline 108 % of control | [3] 100 % of control | dose: 400.0 mg/kg/injection, schedule: Q04DX003 (ip), vehicle: saline 100 % of control

O=C(Nc1cc(Cl)ccc1Cl)OCCCl
inactive: dose: 100.0 mg/kg/injection, schedule: Q04DX002 (ip), vehicle: Klucel (hydroxypropylcellulose) (HPC) 97 % of control | dose: 200.0 mg/kg/injection, schedule: Q04DX002 (ip), vehicle: Klucel (hydroxypropylcellulose) (HPC) 102 % of control | dose: 400.0 mg/kg/injection, schedule: Q04DX002 (ip), vehicle: Klucel (hydroxypropylcellulose) (HPC) 97 % of control

CON(C)c1nc2ccccc2o1
inactive: dose: 50.0 mg/kg/injection, schedule: Q01DX001 (ip), vehicle: saline 103 % of control | [1] 100 % of control | [2] 100 % of control | [3] 100 % of control

CCCCN(CCCC)c1ccc(/C=C/c2ccnc3ccccc23)cc1
inactive: dose: 100.0 mg/kg/injection, schedule: Q01DX009 (ip), vehicle: carboxymethylcellulose (CMC) 101 % of control and 103 % of control | dose: 100.0 mg/kg/injection, schedule: Q04DX002 (ip), vehicle: carboxymethylcellulose (CMC) 102 % of control | dose: 100.0 mg/kg/injection, schedule: Q04DX003 (ip), vehicle: carboxymethylcellulose (CMC) 97 % of control | dose: 200.0 mg/kg/injection, schedule: Q01DX001 (ip), vehicle: carboxymethylcellulose (CMC) 92 % of control | dose: 200.0 mg/kg/injection, schedule: Q01DX009 (ip), vehicle: carboxymethylcellulose (CMC) 101 % of control and 104 % of control | dose: 200.0 mg/kg/injection, schedule: Q04DX002 (ip), vehicle: carboxymethylcellulose (CMC) 108 % of control | dose: 200.0 mg/kg/injection, schedule: Q04DX003 (ip), vehicle: carboxymethylcellulose (CMC) 100 % of control | dose: 400.0 mg/kg/injection, schedule: Q01DX009 (ip), vehicle: carboxymethylcellulose (CMC) 101 % of control and 103 % of control | dose: 400.0 mg/kg/injection, schedule: Q04DX002 (ip), vehicle: carboxymethylcellulose (CMC) 102 % of control | dose: 400.0 mg/kg/injection, schedule: Q04DX003 (ip), vehicle: carboxymethylcellulose (CMC) 97 % of control | dose: 800.0 mg/kg/injection, schedule: Q01DX001 (ip), vehicle: carboxymethylcellulose (CMC) 92 % of control | dose: 1600.0 mg/kg/injection, schedule: Q01DX001 (ip), vehicle: carboxymethylcellulose (CMC) 88 % of control

CCOC(=O)/C=C(\C)Nc1ncc(Br)cc1Br
inactive: [4] 92 % of control | [5] 96 % of control | [6] 89 % of control

Cc1cccc(NC(=O)CSc2cc(Cl)c(Cl)cc2Cl)c1
inactive: [4] 93 % of control | [5] 90 % of control | [6] 87 % of control

C(C[P+](c1ccccc1)(c1ccccc1)c1ccccc1)=C(c1ccccc1)c1ccccc1
inactive: dose: 10.0 mg/kg/injection, schedule: Q01DX001 (ip), vehicle: saline 103 % of control | dose: 40.0 mg/kg/injection, schedule: Q01DX001 (ip), vehicle: saline 95 % of control
